# Results reported in patent publication US11148991B2, “5-bromo-2-(alpha-hydroxypentyl)benzoic acid sodium salts in different crystal forms, and preparation method thereof” (priority 2013, dated 2021).
# What was measured:
# blood routine tests = test: Sub-acute toxic effect on blood routine tests; format: in vivo, Rat; set-up: WBC / RBC: unit not given beside the values; details: for PLT: in 10^9/L (unit assumed); for Lymphocyte (LYM): in % (unit assumed); for HGB: in g/L (unit assumed)
# [1] = test system: liver and kidney functions in rats; test: Sub-acute toxic effect on liver and kidney functions in rats; format: in vivo; set-up: AST: unit not given here; details: for Albumin (ALB) / Total Proteins (TP): in g/L (unit assumed); for Creatinine (CRE): in µmol/L (unit assumed)
# [2] = Stability in water and methanol solution; format: physicochemical; details: sodium salt
# [3] = test system: blood coagulation functions in rats; test: Sub-acute toxic effect on blood coagulation functions in rats; format: in vivo
# [4] = Effect on body weight of rats; format: in vivo; details: for BW: in g (unit assumed)
# [5] = Acute toxicity (LD50), mouse; details: in vivo
# [6] = rats F, iv (12 mg/kg), in U/L (unit assumed)
# [7] = Day 6, rats F, ig group 20 mg/kg
# [8] = Day 6, rats F, iv group 12 mg/kg
# [9] = Day 6, rats M, ig group 20 mg/kg
# [10] = Day 6, rats M, iv group 12 mg/kg
# [11] = Day 11, rats F, ig group 20 mg/kg
# [12] = Day 11, rats F, iv group 12 mg/kg
# [13] = Day 11, rats M, ig group 20 mg/kg
# [14] = Day 11, rats M, iv group 12 mg/kg
# [15] = Day 16, rats F, ig group 20 mg/kg
# [16] = Day 16, rats F, iv group 12 mg/kg
# [17] = Day 16, rats M, ig group 20 mg/kg
# [18] = Day 16, rats M, iv group 12 mg/kg
# [19] = Day 21, rats F, ig group 20 mg/kg
# [20] = Day 21, rats F, iv group 12 mg/kg
# [21] = Day 21, rats M, ig group 20 mg/kg
# [22] = Day 21, rats M, iv group 12 mg/kg
# [23] = Day 24, rats F, ig group 20 mg/kg
# [24] = Day 24, rats F, iv group 12 mg/kg
# [25] = Day 24, rats M, ig group 20 mg/kg
# [26] = Day 24, rats M, iv group 12 mg/kg
compound,measurement,setting,value
"CCCCC(O)c1ccc(Br)cc1C(=O)[O-].[Na+] (stereo not drawn) [BZP (amorphous form), 5-bromo-2-(α-hydroxypentyl)benzoic acid sodium salt]",Basophil (RAS),"blood routine tests; F, ig (20 mg/kg)",1.43 ± 1.17
same,Eosinophil (EOS),"blood routine tests; F, ig (20 mg/kg)",0.23 ± 0.12
same,Monocyte (MON),"blood routine tests; F, ig (20 mg/kg)",2.05 ± 1.74
same,Neutrophil (NEU),"blood routine tests; F, ig (20 mg/kg)",28.44 ± 10.20
same,RBC,"blood routine tests; F, ig (20 mg/kg)",4.51 ± 3.30
same,WBC,"blood routine tests; F, ig (20 mg/kg)",4.44 ± 2.24
same,PLT,"blood routine tests; F, ig (20 mg/kg)",1146.00 ± 74.22
same,Lymphocyte (LYM),"blood routine tests; F, ig (20 mg/kg)",66.45 ± 11.13
same,HGB,"blood routine tests; F, ig (20 mg/kg)",117.00 ± 19.70
same,Basophil (RAS),"blood routine tests; F, iv (12 mg/kg)",0.56 ± 0.15
same,Eosinophil (EOS),"blood routine tests; F, iv (12 mg/kg)",0.76 ± 0.50
same,Monocyte (MON),"blood routine tests; F, iv (12 mg/kg)",3.62 ± 0.63
same,Neutrophil (NEU),"blood routine tests; F, iv (12 mg/kg)",21.44 ± 2.74
same,RBC,"blood routine tests; F, iv (12 mg/kg)",6.95 ± 1.06
same,WBC,"blood routine tests; F, iv (12 mg/kg)",5.20 ± 1.53
same,PLT,"blood routine tests; F, iv (12 mg/kg)",1075.00 ± 41.70
same,Lymphocyte (LYM),"blood routine tests; F, iv (12 mg/kg)",73.62 ± 2.16
same,HGB,"blood routine tests; F, iv (12 mg/kg)",125.60 ± 16.68
same,Basophil (RAS),"blood routine tests; M, ig (20 mg/kg)",0.62 ± 0.25
same,Eosinophil (EOS),"blood routine tests; M, ig (20 mg/kg)",0.56 ± 0.50
same,Monocyte (MON),"blood routine tests; M, ig (20 mg/kg)",4.93 ± 1.91
same,Neutrophil (NEU),"blood routine tests; M, ig (20 mg/kg)",23.88 ± 5.48
same,RBC,"blood routine tests; M, ig (20 mg/kg)",7.61 ± 0.28
same,WBC,"blood routine tests; M, ig (20 mg/kg)",5.18 ± 0.71
same,PLT,"blood routine tests; M, ig (20 mg/kg)",1258.20 ± 281.33
same,Lymphocyte (LYM),"blood routine tests; M, ig (20 mg/kg)",70.84 ± 3.99
same,HGB,"blood routine tests; M, ig (20 mg/kg)",134.00 ± 19.13
same,Basophil (RAS),"blood routine tests; M, iv (12 mg/kg)",0.40 ± 0.12
same,Eosinophil (EOS),"blood routine tests; M, iv (12 mg/kg)",0.60 ± 0.29
same,Monocyte (MON),"blood routine tests; M, iv (12 mg/kg)",3.80 ± 0.70
same,Neutrophil (NEU),"blood routine tests; M, iv (12 mg/kg)",22.16 ± 4.14
same,RBC,"blood routine tests; M, iv (12 mg/kg)",7.86 ± 0.40
same,WBC,"blood routine tests; M, iv (12 mg/kg)",5.66 ± 2.23
same,PLT,"blood routine tests; M, iv (12 mg/kg)",1087.20 ± 56.34
same,Lymphocyte (LYM),"blood routine tests; M, iv (12 mg/kg)",72.50 ± 4.66
same,HGB,"blood routine tests; M, iv (12 mg/kg)",141.40 ± 7.20
same,AST,"[1]; rats F, ig (20 mg/kg)",168.00 ± 17.19
same,Blood urea nitrogen (BUN),"[1]; rats F, ig (20 mg/kg)",3.80 ± 0.59
same,Total Bilirubin (TBIL),"[1]; rats F, ig (20 mg/kg)",2.10 ± 0.40
same,Creatinine kinase (CK),"[1]; rats F, ig (20 mg/kg), in U/L (unit assumed)",776.00 ± 437.68
same,Albumin (ALB),"[1]; rats F, ig (20 mg/kg)",32.43 ± 1.14
same,Total Proteins (TP),"[1]; rats F, ig (20 mg/kg)",46.63 ± 1.07
same,Creatinine (CRE),"[1]; rats F, ig (20 mg/kg)",57.50 ± 3.11
same,AST,"[1]; rats F, iv (12 mg/kg)",202.40 ± 68.12
same,Blood urea nitrogen (BUN),"[1]; rats F, iv (12 mg/kg)",4.00 ± 0.43
same,Total Bilirubin (TBIL),"[1]; rats F, iv (12 mg/kg)",2.72 ± 0.67
same,ALT,[1]; [6],38.00 ± 9.82
same,Creatinine kinase (CK),[1]; [6],636.80 ± 536.05
same,Albumin (ALB),"[1]; rats F, iv (12 mg/kg)",33.96 ± 1.71
same,Total Proteins (TP),"[1]; rats F, iv (12 mg/kg)",49.00 ± 0.79
same,Creatinine (CRE),"[1]; rats F, iv (12 mg/kg)",55.40 ± 2.30
same,AST,"[1]; rats M, ig (20 mg/kg)",4.92 ± 0.75
same,Blood urea nitrogen (BUN),"[1]; rats M, ig (20 mg/kg)",2.76 ± 1.09
same,Total Bilirubin (TBIL),"[1]; rats M, ig (20 mg/kg)",2.24 ± 1.50
same,Creatinine kinase (CK),"[1]; rats M, ig (20 mg/kg), in U/L (unit assumed)",938.60 ± 553.43
same,Albumin (ALB),"[1]; rats M, ig (20 mg/kg)",28.98 ± 7.34
same,Total Proteins (TP),"[1]; rats M, ig (20 mg/kg)",40.26 ± 15.78
same,Creatinine (CRE),"[1]; rats M, ig (20 mg/kg)",38.80 ± 25.62
same,AST,"[1]; rats M, iv (12 mg/kg)",5.34 ± 1.33
same,Blood urea nitrogen (BUN),"[1]; rats M, iv (12 mg/kg)",3.46 ± 0.72
same,Total Bilirubin (TBIL),"[1]; rats M, iv (12 mg/kg)",3.10 ± 1.23
same,Creatinine kinase (CK),"[1]; rats M, iv (12 mg/kg), in U/L (unit assumed)",762.00 ± 351.72
same,Albumin (ALB),"[1]; rats M, iv (12 mg/kg)",36.90 ± 6.72
same,Total Proteins (TP),"[1]; rats M, iv (12 mg/kg)",53.40 ± 8.69
same,Creatinine (CRE),"[1]; rats M, iv (12 mg/kg)",66.60 ± 15.09
same,Stability,[2]; in methanol solution,>24 h
same,Stability,[2]; in water,>24 h
same,APTT,"[3]; rats F, ig (20 mg/kg)",22.8 ± 5.9 s
same,FIB,"[3]; rats F, ig (20 mg/kg)",7.22 ± 0.97 g/L
same,PT,"[3]; rats F, ig (20 mg/kg)",17.5 ± 2.2 s
same,TT,"[3]; rats F, ig (20 mg/kg)",27.3 ± 2.4 s
same,APTT,"[3]; rats F, iv (12 mg/kg)",22.3 ± 8.5 s
same,FIB,"[3]; rats F, iv (12 mg/kg)",6.63 ± 0.95 g/L
same,PT,"[3]; rats F, iv (12 mg/kg)",18.8 ± 3.3 s
same,TT,"[3]; rats F, iv (12 mg/kg)",27.5 ± 2.8 s
same,APTT,"[3]; rats M, ig (20 mg/kg)",26.5 ± 3.2 s
same,FIB,"[3]; rats M, ig (20 mg/kg)",7.03 ± 0.29 g/L
same,PT,"[3]; rats M, ig (20 mg/kg)",16.4 ± 3.4 s
same,TT,"[3]; rats M, ig (20 mg/kg)",26.9 ± 5.9 s
same,APTT,"[3]; rats M, iv (12 mg/kg)",23.7 ± 2.1 s
same,FIB,"[3]; rats M, iv (12 mg/kg)",6.28 ± 0.55 g/L
same,PT,"[3]; rats M, iv (12 mg/kg)",17.5 ± 2.0 s
same,TT,"[3]; rats M, iv (12 mg/kg)",27.1 ± 3.8 s
same,BW,"[4]; Day 1, rats F, ig group 20 mg/kg",179 ± 12
same,BW,"[4]; Day 1, rats F, iv group 12 mg/kg",182 ± 13
same,BW,"[4]; Day 1, rats M, ig group 20 mg/kg",183 ± 8
same,BW,"[4]; Day 1, rats M, iv group 12 mg/kg",179 ± 13
same,ΔW (%),[4]; [7],7 ± 4%
same,BW,[4]; [7],192 ± 16
same,ΔW (%),[4]; [8],7 ± 2%
same,BW,[4]; [8],195 ± 12
same,ΔW (%),[4]; [9],15 ± 3%
same,BW,[4]; [9],210 ± 8
same,ΔW (%),[4]; [10],14 ± 6%
same,BW,[4]; [10],204 ± 7
same,ΔW (%),[4]; [11],7 ± 2 %
same,BW,[4]; [11],203 ± 14
same,ΔW (%),[4]; [12],3 ± 2 %
same,BW,[4]; [12],200 ± 15
same,ΔW (%),[4]; [13],17 ± 5%
same,BW,[4]; [13],245 ± 12
same,ΔW (%),[4]; [14],14 ± 2 %
same,BW,[4]; [14],238 ± 6
same,ΔW (%),[4]; [15],25 ± 4 %
same,BW,[4]; [15],224 ± 11
same,ΔW (%),[4]; [16],21 ± 7 %
same,BW,[4]; [16],212 ± 14
same,ΔW (%),[4]; [17],53 ± 14%
same,BW,[4]; [17],280 ± 18
same,ΔW (%),[4]; [18],31 ± 10%
same,BW,[4]; [18],270 ± 6
same,ΔW (%),[4]; [19],29 ± 6 %
same,BW,[4]; [19],230 ± 15
same,ΔW (%),[4]; [20],23 ± 6 %
same,BW,[4]; [20],223 ± 20
same,ΔW (%),[4]; [21],75 ± 14%
same,BW,[4]; [21],320 ± 18
same,ΔW (%),[4]; [22],66 ± 15 %
same,BW,[4]; [22],296 ± 8
same,ΔW (%),[4]; [23],31 ± 5 %
same,BW,[4]; [23],235 ± 12
same,ΔW (%),[4]; [24],21 ± 6 %
same,BW,[4]; [24],221 ± 19
same,ΔW (%),[4]; [25],84 ± 14%
same,BW,[4]; [25],337 ± 18
same,ΔW (%),[4]; [26],71 ± 16 %
same,BW,[4]; [26],304 ± 10
same,LD50,[5]; iv,323 mg/kg
same,LD50,[5]; po,927 mg/kg
